Assay results: US5208223A, “Phosphocholine derivative inhibitors of phospholipase A2” (American Cyanamid Company, priority 1992, dated 1993)
Counter-ions that a name gives are not always drawn. Like-named read-outs stand apart in the source and are kept apart here.

How the values were obtained:
porcine pancreatic PLA2 [1] = target: T1, porcine pancreatic PLA2 (Sus scrofa, UniProt P00592); experiment: PLA2 assay: in vitro porcine pancreatic phospholipase A2, preincubation of drug+enzyme, substrate 2 nM; format: biochemical; details: preincubation, subs. con. 2; for IC50: read-out: IC50 (converted)
T1 construct: purchased Sigma
Procedure: (§1) Phospholipase A2 activity was measured by a radiochemical assay in which labeled synthetic phosphatidylcholine substrate is converted by porcine pancreatic PLA2 to free radiolabeled arachidonate and lyso PC. Radiolabeled arachidonate is extracted from the reaction mixture and separated from unreacted substrate by column chromatography or TLC. Radioactivity (cpm) in samples is quantitated by liquid scintillation counting. Specific details are as follows:
(§2) Labeled substrate(1-stearyl-2-^3 H-arachidonylphosphatidylcholine; Amersham, sp. act. 84 (uCi/mmole, 0.025 to 0.2 uCi/assay tube and unlabeled substrates (Avanti), in sufficient quantity to give 20,000 cpm to 50,000 cpm and 10 μM to 1,000 μM final concentration/assay tube are dried under a stream of nitrogen. The PLA2 and mPLA2 assays utilized a […] substrate concentration. The mHPLA2 and HPLA2 assays (vida infra) utilized a 10 μM substrate concentration and the SmPLA2 assay utilized a substrate concentration ranging from 100 to 1000 μm. The substrate is then redissolved in 0.1M tris-HCl buffer, pH 9.0 containing 10 mM CaCl2 and 10 mM Na taurocholate detergent. The mixture is sonicated in a Kontes Sonifier to yield a homogeneous dispersion. The "mixed" micellar substrate is clear. An aliquot is reserved for a cpm count (total substrate). The total reaction volume is 500 μL; siliconized glassware or plasticware is used throughout. Enzyme (Sigma, sp. act.>690 U/mg protein and preferably 900 U/mg protein) is diluted 1:750 or 1:1000 in 0.1M tris-HCl buffer, pH 9.0 (without Ca^++ and detergent). Enzyme dilution depends on substrate concentration and required enzyme concentration.
(§3) The substrate in buffer is kept on ice until the reaction is started. The reaction is started by adding 10 μL of diluted enzyme solution to 490 μL of micellar substrate solution. Samples are incubated in a 37° C. water bath for 15 minutes with gentle mixing. The reaction is terminated by the addition of 100 μL of 1M fresh trichloroacetic acid (TCA) solution and chilling the tubes on ice for 30 minutes.
(§4) Samples (600 μL) are extracted with 3 ml CHCl3 /MeOH (2:1) for thin layer chromatography or in hexane/ether (9:1) for column chromatography. The phases are separated by gentle centrifugation at 700 rpm×5'. The organic phase is recovered.
(§5) Labeled arachidonate extracted with CHCl3 /MeOH is separated on silica gel G TLC plates (Analtech). Twenty μL of a 2 mg/ml internal standard solution of arachidonic acid (Sigma) is combined with 2-3 ml of the organic phase. The entire mixture is dried under nitrogen and redissolved in 50 μL of CHCl3 /MeOH (2:1). A 20 μL sample is counted in 10 ml of Beckman Redi-solv HP and spotted on silica gel G plates. The solvent system used to develop the plate is CHCl3 /MeOH/13.5N NH3 /H2 O (70:30:4:1). Plates are developed in a glass chamber for 1-11/2 hours, air dried, and the spots visualized in an iodine vapor chamber. Standards of phosphatidylcholine, lyso PC, and arachidonic acid (Sigma) are made as 2 mg/ml stocks in CHCl3 /MeOH (2:1) and spotted on plates. Spots corresponding to arachidonate and phospholipid are scraped and counted in 10 ml Beckman Redi-Solv HP scintillation fluid.
(§6) Samples are extracted with hexane/ether and the upper organic phase recovered. An aliquot is applied to a Silicar CC4 (Malincrodt) column. Columns are prepared using 1 ml of a 1:1 slurry of silicar CC4 in hexane/ether in a Pasteur pipet (approx. 2 cm height). Columns are rinsed with 500 μL of hexane/ether before adding the sample (300-600 μL) to the column. Columns are eluted with a total of 6 ml of hexane/ether. The 6 ml sample is counted in 10 ml of Beckman Redi-Solv HP scintillation fluid.
or the phospholipase A2 assay, compounds are prepared as 1 mg/ml stock solutions in MeOH and diluted appropriately in PBS.

porcine pancreatic PLA2 [2] = target: T1, porcine pancreatic PLA2; experiment: MHPLA2 assay: in vitro porcine pancreatic phospholipase A2, mixed micelle design, [s]=10 μm; format: biochemical; details: dose 25 μ/ml, subs. con. 10
Procedure: as §1, §2, §3, §4, §5, §6
or the phospholipase A2 assay, compounds are prepared as 1 mg/ml stock solutions in MeOH and diluted appropriately in PBS. […]

[3] = dose 10 μ/ml, read-out: % Inh. Avg.

T1 sequence (P00592 23-146): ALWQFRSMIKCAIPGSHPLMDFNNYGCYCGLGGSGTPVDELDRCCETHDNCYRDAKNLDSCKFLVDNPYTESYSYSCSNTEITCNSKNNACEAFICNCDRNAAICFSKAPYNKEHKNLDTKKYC

inhibition at 10 µg/mL (porcine pancreatic PLA2 [1]; [3])	IC50 (porcine pancreatic PLA2 [1])	inhibition at 10 µg/mL (porcine pancreatic PLA2 [1]; dose 10 μ/ml, read-out: % Inh.)	inhibition at 20 µg/mL (porcine pancreatic PLA2 [1]; dose 20 μ/ml, read-out: % Inh.)	SMILES	also measured
–	–	–	–	CCCCCCCCCCCCCCCCOC[C@H](COP(=O)([O-])OCC[N+](C)(C)C)OP(=O)(OC)OCCCCCCCCCCCCCCCC (single isomer, unassigned) [3,5,8,10-Tetraoxa-4,9-diphosphahexacosan-1-aminium, 7-[(hexa]	% Inh. Avg. (porcine pancreatic PLA2 [1]; dose 20 μ/ml): 28%
–	–	–	–	CCCCCCCCCCCCCCCCOC[C@@H](COP(=O)([O-])OCC[N+](C)(C)C)OP(=O)(OC)OCCCCCCCCCCCCCCCC (single isomer, unassigned) [3,5,8,10-Tetraoxa-4,9-diphosphahexacosan-1-aminium, 7-[(hexa]	% Inh. (porcine pancreatic PLA2 [2]): 0%
–	–	–	–	CCCCCCCCCCCCCCCCOCC(COP(=O)([O-])OCC[N+](C)(C)C)OP(=O)(OC)OCCCCC (single isomer, unassigned) [3,5,8,10-Tetraoxa-4,9-diphosphapentadecan-1-aminium, 7-[(hex] [3,5,8,10-Tetraoxa-4,9-diphosphapentadecan-1-aminium, 7-[(hexadecyloxy)methyl]-4-hydroxy-9-methoxy-N,N,N-trimethyl-, hydroxide, 4-(inner salt), 4,9-dioxide, less polar isomer]	% Inh. (porcine pancreatic PLA2 [2]): STIM
–	–	–	–	CCCCCCCCCCCCCCCCOCC(COP(=O)([O-])OCC[N+](C)(C)C)CC(O)CCCCCCCCCCCCCCCC (single isomer, unassigned) [4-Hydroxy-7-(2-hydroxyoctadecyl)-N,N,N-trimethyl-3,5,9-triox] [4-Hydroxy-7-(2-hydroxyoctadecyl)-N,N,N-trimethyl-3,5,9-trioxa-4-phosphapentacosan-1-aminium, hydroxide, inner salt, 4-oxide isomer]	% Inh. (porcine pancreatic PLA2 [1]; dose 10 μ/ml): 80%
–	2.32 µM	–	–	CCCCCCCCCCCCCCCCOCC(COP(=O)([O-])OCC[N+](C)(C)C)CC(O)CCCCCCCCCCCCCCCC (single isomer, unassigned) [4-Hydroxy-7-(2-hydroxyoctadecyl)-N,N,N-trimethyl-3,5,9-trioxa-4-phosphapentacosan-1-aminium, hydroxide, inner salt, 4-oxide isomer]	–
–	2.18 µM	80%	80%	CCCCCCCCCCCCCCCCOCC(COP(=O)([O-])OCC[N+](C)(C)C)CC(O)CCCCCCCCCCCCCCCC (single isomer, unassigned) [4-Hydroxy-7-(2-hydroxyoctadecyl)-N,N,N-trimethyl-3,5,9-trioxa-4-phosphapentacosan-1-aminium, hydroxide, inner salt, 4-oxide]	–
–	–	–	–	CCCCCCCCCCCCCCCCOCC(COP(=O)([O-])OCC[N+](C)(C)C)OP(=O)(OC)OCCCCCCCCCCCCCCCC (centres unmarked) [3,5,8,10-Tetraoxa-4,9-diphosphahexacosan-1-aminium, 7-[(hexa] [3,5,8,10-Tetraoxa-4,9-diphosphahexacosan-1-aminium, 7-[(hexadecyloxy)methyl]-4-hydroxy-9-methoxy-N,N,N-trimethyl-, hydroxide, inner salt, 4,9-dioxide]	% Inh. Avg. (porcine pancreatic PLA2 [1]; dose 10 μ/ml): 30%; % Inh. Avg. (porcine pancreatic PLA2 [1]; dose 25 μ/ml): 75%; % Inh. Avg. (porcine pancreatic PLA2 [1]; dose 50 μ/ml): 77%
20%	–	–	–	CCCCCCCCCCCCCCCCOP(=O)(O)OCCOP(=O)([O-])OCC[N+](C)(C)C [3,9-Dihydroxy-N,N,N-trimethyl-3,5,8,10-tetraoxa-4,9-diphosphahexacosan-1-aminium, hydroxide, 4-(inner salt) 4,9-dioxide]	–
40%	–	–	–	CCCCCCCCCCCCCCCCCCOP(=O)(O)OCCOP(=O)([O-])OCC[N+](C)(C)C [4,9-Dihydroxy-N,N,N-trimethyl-3,5,8,10-tetraoxa-4,9-diphosphaoctacosan-1-aminium, hydroxide, 4-(inner salt), 4,9-dioxide]	–
64%	7.89 µM	65%	66%	CCCCCCCCCCCCCCCCOCC(COP(=O)([O-])OCC[N+](C)(C)C)CC(C)(O)CCCCCCCCCCCCCCCC (centres unmarked) [4-Hydroxy-7-(2-hydroxy-2-methyloctadecyl)-N,N,N-trimethyl-3,5,9-trioxa-4-phosphapentacosan-1-aminium, hydroxide, inner salt, 4-oxide]	–
62%	5.2 µM	59%	52%	C=C(CCCCCCCCCCCCCCCC)CC(COCCCCCCCCCCCCCCCC)COP(=O)([O-])OCC[N+](C)(C)C (centres unmarked) [4-Hydroxy-N,N,N-trimethyl-7-(2-methyleneoctadecyl)-3,5,9-trioxa-4-phosphaoentacosan-1-aminium, hydroxide, inner salt, 4-oxide]	–
43%	26 µM	47%	62%	CCCCCCCCCCCCCCCCOCC(CC=O)COP(=O)([O-])OCC[N+](C)(C)C (centres unmarked) [4-Hydroxy-N,N,N-trimethyl-7-(2-oxoethyl)-3,5,9-trioxa-4-phosphapentacosan-1-aminium, hydroxide, inner salt, 4-oxide]	–
60%	7.92 µM	59%	62%	CCCCCCCCCCCCCCCCOCC(COP(=O)([O-])OCC[N+](C)(C)C)CC(=O)CCCCCCCCCCCCCCCC (centres unmarked) [4-Hydroxy-N,N,N-trimethyl-7-(2-oxooctadecyl)-3,5,9-trioxa-4-phosphapentacosan-1-aminium, hydroxide inner salt, 4 oxide]	–

SMILES	inhibition at 10 µg/mL (porcine pancreatic PLA2 [1]; [3])	IC50 (porcine pancreatic PLA2 [1])	inhibition at 10 µg/mL (porcine pancreatic PLA2 [1]; dose 10 μ/ml, read-out: % Inh.)	inhibition at 20 µg/mL (porcine pancreatic PLA2 [1]; dose 20 μ/ml, read-out: % Inh.)	also measured
CCCCCCCCCCCCCCCCOC[C@H](COP(=O)([O-])OCC[N+](C)(C)C)OP(=O)(OC)OCCCCCCCCCCCCCCCC (single isomer, unassigned)	22%	17.1 µM	–	–	inhibition at 20 µg/mL (porcine pancreatic PLA2 [1]; dose 20 μ/ml, read-out: % Inh. Avg.): 34%
CCCCCCCCCCCCCCCCOC[C@@H](COP(=O)([O-])OCC[N+](C)(C)C)OP(=O)(OC)OCCCCCCCCCCCCCCCC (single isomer, unassigned)	–	4.12 µM	–	–	inhibition at 25 µg/mL (porcine pancreatic PLA2 [1]; dose 25 μ/ml, read-out: % Inh.): 91%
CCCCCCCCCCCCCCCCOCC(COP(=O)([O-])OCC[N+](C)(C)C)OP(=O)(OC)OCCCCC (single isomer, unassigned) [3,5,8,10-Tetraoxa-4,9-diphosphapentadecan-1-aminium, 7-[(hexadecyloxy)methyl]-4-hydroxy-9-methoxy-N,N,N-trimethyl-, hydroxide, 4-(inner salt), 4,9-dioxide, less polar isomer]	–	8.05 µM	76%	83%	–
CCCCCCCCCCCCCCCCOP(=O)(OC)OCCOP(=O)(O)OCCBr (centres unmarked) [2-[[(2-Bromoethoxy)hydroxyphosphinyl]oxy]ethyl hexadecyl phosphoric acid, methyl ester]	21%	–	–	–	–
CCCCCCCCCCCCCCCCOCC(COP(=O)([O-])OCC[N+](C)(C)C)CC1(CCCCCCCCCCCCCCCC)CO1 (centres unmarked) [7-[(2-Hexadecyloxiranyl)methyl]-4-hydroxy-N,N,N-trimethyl-3,5,9-trioxa-4-phosphapentacosan-1-aminium, hydroxide, inner salt, 4-oxide]	–	2.41 µM	78%	75%	–
